The record followed here is DBAASP.

Values after ≈ are worked out from the molar mass of the structure shown.

Some test systems named below: Escherichia coli K-12; Bibersteinia trehalosi; Klebsiella pneumoniae; Pasteurella multocida; Staphylococcus aureus; Escherichia coli BW25113; Escherichia coli J2210; Escherichia coli JJ2489; Escherichia coli JW0013; Escherichia coli MC1041.
Holding throughout (assay): ≥ marks a high value that may be exact or a test limit, other limits are often not marked, values filed in µg/mL are converted to µM
In experiment [1] the test system is Staphylococcus aureus JE2.
In experiment [2] the test system is Bacillus cereus ATCC 11778.
For experiment [3], the system named is Bacillus thuringiensis ATCC 10792.
In experiment [4] the test system is Candida albicans ATCC 90028.
Experiment [5] deals with Enterococcus faecium CCT 5079.
The subject of experiment [6] is Enterococcus hirae ATCC 10541.
The subject of experiment [7] is Escherichia coli ATCC 11775.
The test system of experiment [8] is Escherichia coli ATCC 25922.
Experiment [9] relates to Escherichia coli CCT 1457.
Experiment [10] has as its system Micrococcus luteus ATCC 4698.
For experiment [11], the system named is Pseudomonas aeruginosa ATCC 13388.
Experiment [12] has as its system Pseudomonas aeruginosa ATCC 15422.
Experiment [13] has as its system Salmonella enterica subsp. enterica serovar Choleraesuis ATCC 10708.
For experiment [14], the system named is Salmonella enterica subsp. enterica serovar Typhimurium ATCC 14028.
In experiment [15] the test system is Staphylococcus aureus ATCC 25923.
The test system of experiment [16] is Staphylococcus aureus CCT 2580.
The test system of experiment [17] is Staphylococcus aureus CCT 6538.
Experiment [18] concerns Staphylococcus epidermidis ATCC 12228.
The test system of experiment [19] is Streptococcus mutans AU159.
Experiment [20] deals with Streptococcus pneumoniae ATCC 11733.
The subject of experiment [21] is Corynebacterium pseudotuberculosis ATCC 19410.
The subject of experiment [22] is Mannheimia haemolytica Serovar 1.
In experiment [23] the test system is Mannheimia haemolytica Serovar 6.
For experiment [24], the system named is Pseudomonas aeruginosa PAO1.
The subject of experiment [25] is Salmonella enterica subsp. arizonae.
For experiment [26], the system named is Legionella pneumophila Lens.
In experiment [27] the test system is Escherichia coli JW0368 ΔsbmA.
The test system of experiment [28] is Escherichia coli JW2778 ΔygdD.
The test system of experiment [29] is Salmonella enterica subsp. enterica serovar Enteritidis MH91989.
Experiment [30] concerns Salmonella typhimurium SL1344.

One may read the MIC as the lowest concentration found to suppress growth.

With `CC[C@H](C)[C@H](NC(=O)[C@@H](NC(=O)[C@H](CO)NC(=O)[C@H](C)NC(=O)[C@@H](NC(=O)[C@H](CCCCN)NC(=O)[C@H](CCCCN)NC(=O)[C@@H](NC(=O)[C@@H](NC(=O)[C@H](CC(=O)O)NC(=O)[C@H](Cc1ccccc1)NC(=O)[C@H](CC(C)C)NC(=O)CNC(C)=O)C(C)C)[C@@H](C)CC)C(C)C)C(C)C)C(=O)NCC(=O)NCC(=O)N[C@@H](CC(C)C)C(=O)O` [GLFDVIKKVASVIGGL], the MIC (in the experiment on Escherichia coli K-12; in experiment [1]) was at least 158 µM in each case.
Regarding `CC[C@H](C)[C@H](N)C(=O)N[C@@H](CC(N)=O)C(=O)N[C@@H](Cc1c[nH]c2ccccc12)C(=O)N[C@@H](CCCCN)C(=O)N[C@@H](CCCCN)C(=O)N[C@H](C(=O)N[C@@H](C)C(=O)N[C@@H](CCCCN)C(=O)N[C@@H](CCCCN)C(=O)N[C@H](C(=O)N[C@@H](C)C(=O)NCC(=O)N[C@@H](CCSC)C(=O)N[C@@H](CC(C)C)C(N)=O)C(C)C)[C@@H](C)CC` [INWKKIAKKVAGML], the MIC in [2] was found to be 10 µM (≈ 16 µg/mL); in experiment [3] it was 19.4 µM (≈ 31 µg/mL); in experiment [4] it was 9.76 µM (≈ 15.6 µg/mL); in [5] it was 0.625 µM (≈ 0.999 µg/mL); in experiment [6], 5 µM (≈ 8 µg/mL); in experiment [7] it was 2.5 µM (≈ 4 µg/mL). Also, the MIC was determined as 2.5 µM (≈ 4 µg/mL) in [8]; 0.625 µM (≈ 0.999 µg/mL) in experiment [9]; 0.625 µM (≈ 0.999 µg/mL) in experiment [10]; 10 µM (≈ 16 µg/mL) in experiment [11]; 5 µM (≈ 8 µg/mL) in experiment [12]; 5 µM (≈ 8 µg/mL) in [13]. Further, the MIC in [14] came to 1.25 µM (≈ 2 µg/mL); in [15], 1.25 µM (≈ 2 µg/mL); in experiment [16], 1.25 µM (≈ 2 µg/mL); in experiment [17], 0.625 µM (≈ 0.999 µg/mL); in experiment [18] it was 0.625 µM (≈ 0.999 µg/mL); in [19] it was 1.25 µM (≈ 2 µg/mL). In addition, in experiment [20], the minimal inhibitory concentration (MIC) was 0.625 µM (≈ 0.999 µg/mL).
As for `CC[C@H](C)[C@H](NC(=O)[C@H](CCCN=C(N)N)NC(=O)[C@@H](NC(=O)[C@@H](NC(=O)[C@H](CCCN=C(N)N)NC(=O)[C@H](CC(C)C)NC(=O)[C@@H](NC(=O)[C@@H](NC(=O)[C@@H]1CCCN1C(=O)CNC(=O)[C@H](Cc1ccc(O)cc1)NC(=O)[C@H](CCCCN)NC(=O)[C@H](CCCCN)NC(=O)[C@@H](NC(=O)[C@@H](NC(=O)[C@H](Cc1cnc[nH]1)NC(=O)[C@@H](NC(=O)[C@@H](NC(=O)[C@H](CCCCN)NC(=O)[C@H](CCCN=C(N)N)NC(=O)[C@@H](NC(=O)[C@@H](NC(=O)[C@H](CCCN=C(N)N)NC(=O)[C@H](CCCN=C(N)N)NC(=O)[C@H](CC(C)C)NC(=O)[C@H](CC(N)=O)NC(=O)[C@@H](N)CCCCN)[C@@H](C)CC)[C@@H](C)CC)[C@@H](C)CC)[C@@H](C)CC)[C@@H](C)CC)[C@@H](C)CC)[C@@H](C)O)[C@@H](C)CC)[C@@H](C)CC)[C@@H](C)CC)C(=O)N[C@H](C(=O)NCC(N)=O)[C@@H](C)CC` [KNLRRIIRKIIHIIKKYGPTILRIIRIIG], the MIC in the experiment with Bibersteinia trehalosi worked out at 2.85 µM (≈ 10 µg/mL); in experiment [21], 5.7 µM (≈ 20 µg/mL); in the experiment with Klebsiella pneumoniae it was 0.37 µM (≈ 1.3 µg/mL); in experiment [22], 1.08 µM (≈ 3.8 µg/mL); in experiment [23], 0.598 µM (≈ 2.1 µg/mL); in the experiment with Pasteurella multocida, 2.37 µM (≈ 8.3 µg/mL). For the same compound, the MIC in [24] is 1.2 µM (≈ 4.2 µg/mL); in [25], 1.91 µM (≈ 6.7 µg/mL); with Staphylococcus aureus, 1.42 µM (≈ 5 µg/mL).
Regarding `CC[C@H](C)[C@H](NC(=O)[C@H](Cc1ccccc1)NC(=O)CNC(=O)[C@H](CC(N)=O)NC(=O)[C@@H](N)CCSC)C(=O)N[C@@H](CC(C)C)C(=O)NCC(=O)N[C@@H](CCCCN)C(=O)N[C@@H](Cc1ccccc1)C(=O)N[C@@H](Cc1ccccc1)C(=O)N[C@@H](CC(=O)O)C(=O)N[C@H](C(=O)N[C@@H](C)C(=O)N[C@@H](CCCCN)C(=O)N[C@@H](CCCCN)C(=O)N[C@H](C(=O)N[C@@H](CC(C)C)C(=O)N[C@@H](CC(=O)O)C(=O)N[C@H](C(=O)N[C@H](C(=O)N[C@@H](Cc1ccccc1)C(=O)N[C@@H](CCC(N)=O)C(=O)N[C@@H](CCCCN)C(=O)O)[C@@H](C)CC)[C@@H](C)O)[C@@H](C)CC)C(C)C` [MNGFILGKFFDVAKKILDTIFQK], the MIC in experiment [26] was found to be 1.22 µM (≈ 3.26 µg/mL).
In experiment [26], `CC[C@H](C)[C@H](NC(=O)[C@H](CC(C)C)NC(=O)[C@H](CC(=O)O)NC(=O)[C@@H](NC(=O)[C@@H](NC(=O)[C@H](Cc1ccccc1)NC(=O)[C@H](CCC(N)=O)NC(=O)[C@@H](N)CCSC)[C@@H](C)CC)[C@@H](C)O)C(=O)N[C@@H](CCCCN)C(=O)N[C@@H](CCCCN)C(=O)N[C@@H](C)C(=O)N[C@H](C(=O)N[C@@H](CC(=O)O)C(=O)N[C@@H](Cc1ccccc1)C(=O)N[C@@H](Cc1ccccc1)C(=O)N[C@@H](CCCCN)C(=O)NCC(=O)N[C@@H](CC(C)C)C(=O)N[C@H](C(=O)NCC(=O)N[C@@H](CC(N)=O)C(=O)N[C@@H](CCCCN)C(=O)O)C(C)C)C(C)C` [MQFITDLIKKAVDFFKGLVGNK] had an MIC of 2.08 µM (≈ 5.23 µg/mL).
For `CC[C@H](C)[C@H](NC(=O)[C@H](CCCN=C(N)N)NC(=O)[C@@H](N)CCCN=C(N)N)C(=O)N[C@@H](CCCN=C(N)N)C(=O)N[C@@H](CCCCN)C(=O)N[C@@H](CCCN=C(N)N)C(=O)N1CCC[C@H]1C(=O)N1CCC[C@H]1C(=O)N[C@@H](CCCN=C(N)N)C(=O)N[C@@H](CC(C)C)C(=O)N1CCC[C@H]1C(=O)N[C@@H](CCCN=C(N)N)C(=O)N1CCC[C@H]1C(=O)N[C@@H](CCCN=C(N)N)C(=O)N1CCC[C@H]1C(=O)N[C@@H](CCCCN)C(=O)O` [RRIRKRPPRLPRPRPK], the MIC against Escherichia coli BW25113 is 0.078 µM (≈ 0.162 µg/mL); in the experiment with Escherichia coli J2210, 0.157 µM (≈ 0.326 µg/mL); with Escherichia coli JJ2489, 0.12 µM (≈ 0.25 µg/mL); in the experiment with Escherichia coli JW0013 it was 0.06 µM (≈ 0.125 µg/mL); in experiment [27] it was 0.06 µM (≈ 0.125 µg/mL); in [28], 0.12 µM (≈ 0.25 µg/mL). For the same compound, the MIC was 0.06 µM (≈ 0.125 µg/mL) with Escherichia coli MC1041, 0.12 µM (≈ 0.25 µg/mL) in experiment [29] and 0.12 µM (≈ 0.25 µg/mL) in experiment [30].
